Measured values published in US12570612B2, “Substituted nitrogen heterocyclic compound and anesthetic effect thereof” (priority 2019, dated 2026).

Assays:
Sprague-Dawley rats = assay: animal or person; details: for ED50: LORR in rats, tail vein, brackets = 95% confidence limit; for Approximate therapeutic index / Minimal lethal dose: rats
Description: Adult male Sprague-Dawley rats (250-300 g) were selected for the experiment. […] The anesthesia effects of the compounds were assessed in rats using a LORR assay and a period >30 s was considered as an indicator of general anesthesia.

H295R cell line [1] = assay: Adrenocortical function in vitro test: secretion of cortisol and corticosterone, Group B compounds; type: cell-based; details: H295R cells; for EC50: 0.1-10000 nM, HPLC-MS/MS
H295R cell line [2] = assay: Adrenocortical function in vitro test: secretion of cortisol and corticosterone, Group A compounds; type: cell-based; details: H295 cells; for EC50: 0.1-10000 nM, HPLC-MS/MS
[3] = Homo sapiens, NCI-H295R, read-out: EC50 (Corticosterone)
[4] = Homo sapiens, NCI-H295R, read-out: EC50 (Cortisol)
[5] = read-out: EC50 (Corticosterone)

CCOC(=O)c1c(C(F)(F)F)nnn1[C@H](C)c1ccccc1 [Compound B145]
ED50 (Sprague-Dawley rats; Rattus norvegicus): 2 to 10 mg/kg
Approximate therapeutic index (Sprague-Dawley rats): >4
Minimal lethal dose (Sprague-Dawley rats): >18 mg/kg
Corticosterone as an indicator to determine the presence of inhibition (H295R cell line [1]): 0
Cortisol as an indicator to determine the presence of inhibition (H295R cell line [1]): 0
EC50 (H295R cell line [1]; [3]): > 3 µM
EC50 (H295R cell line [1]; [4]): > 3 µM

C[C@H](c1ccccc1)n1cncc1C(=O)O [Etomidate acid, etomidate acid, reference compound]
Corticosterone as an indicator to determine the presence of inhibition (H295R cell line [2]): 0
Cortisol as an indicator to determine the presence of inhibition (H295R cell line [2]): 0
EC50 (H295R cell line [2]; [5]): > 10 µM
EC50 (H295R cell line [2]; read-out: EC50 (Cortisol)): > 10 µM
Corticosterone as an indicator to determine the presence of inhibition (H295R cell line [1]): 0
Cortisol as an indicator to determine the presence of inhibition (H295R cell line [1]): 0
EC50 (H295R cell line [1]; [5]): > 10 µM
EC50 (H295R cell line [1]; read-out: EC50 (Cortisol)): > 10 µM

C=CC1(OC(=O)c2c(F)nnn2[C@H](C)c2ccccc2)COC1 [Compound B51]
ED50 (Sprague-Dawley rats; Rattus norvegicus): 1 to 2 mg/kg
Approximate therapeutic index (Sprague-Dawley rats): >12
Minimal lethal dose (Sprague-Dawley rats): >14 mg/kg
Corticosterone as an indicator to determine the presence of inhibition (H295R cell line [1]): 0
Cortisol as an indicator to determine the presence of inhibition (H295R cell line [1]): 0
EC50 (H295R cell line [1]; [3]): > 1 µM
EC50 (H295R cell line [1]; [4]): > 1 µM

CCOC(=O)c1cnnn1[C@H](C)c1ccccc1 [Compound B1]
ED50 (Sprague-Dawley rats): A (A indicates that the measured ED50 is in the range of 0.04-0.50 mg/kg (including 0.04 and 0.50 mg/kg))
Approximate therapeutic index (Sprague-Dawley rats): >20
Minimal lethal dose (Sprague-Dawley rats): >8 mg/kg
Corticosterone as an indicator to determine the presence of inhibition (H295R cell line [1]): 0
Cortisol as an indicator to determine the presence of inhibition (H295R cell line [1]): 0
EC50 (H295R cell line [1]; [5]): > 0.1 µM
EC50 (H295R cell line [1]; read-out: EC50 (Cortisol)): > 0.05 µM

CO[C@H]1C[C@@H](OC(=O)c2c(F)nnn2[C@H](C)c2ccccc2)C1 [Compound B40]
ED50 (Sprague-Dawley rats; Rattus norvegicus): 0.5 to 1 mg/kg
Approximate therapeutic index (Sprague-Dawley rats): >6
Minimal lethal dose (Sprague-Dawley rats): >6 mg/kg
Corticosterone as an indicator to determine the presence of inhibition (H295R cell line [1]): 0
Cortisol as an indicator to determine the presence of inhibition (H295R cell line [1]): 0
EC50 (H295R cell line [1]; [3]): > 0.1 µM
EC50 (H295R cell line [1]; [4]): > 0.1 µM

CC(C)OC(=O)c1c(Br)nnn1[C@H](C)c1ccccc1 [Compound B115]
ED50 (Sprague-Dawley rats; Rattus norvegicus): 0.5 to 1 mg/kg
Approximate therapeutic index (Sprague-Dawley rats): >25
Minimal lethal dose (Sprague-Dawley rats): >18 mg/kg
Corticosterone as an indicator to determine the presence of inhibition (H295R cell line [1]): 0
Cortisol as an indicator to determine the presence of inhibition (H295R cell line [1]): 0
EC50 (H295R cell line [1]; [3]): > 3 µM
EC50 (H295R cell line [1]; [4]): > 3 µM

C[C@H](c1ccccc1)n1nnc(I)c1C(=O)OC1(C)COC1 [Compound B140]
ED50 (Sprague-Dawley rats; Rattus norvegicus): 10 to 20 mg/kg
Approximate therapeutic index (Sprague-Dawley rats): >2
Minimal lethal dose (Sprague-Dawley rats): >30 mg/kg
Corticosterone as an indicator to determine the presence of inhibition (H295R cell line [1]): 0
Cortisol as an indicator to determine the presence of inhibition (H295R cell line [1]): 0
EC50 (H295R cell line [1]; [3]): > 1 µM
EC50 (H295R cell line [1]; [4]): > 1 µM

C[C@H](c1ccccc1)n1nnc(I)c1C(=O)OCC1CC1 [Compound B133]
ED50 (Sprague-Dawley rats; Rattus norvegicus): 0.5 to 1 mg/kg
Approximate therapeutic index (Sprague-Dawley rats): >20
Minimal lethal dose (Sprague-Dawley rats): >14 mg/kg
Corticosterone as an indicator to determine the presence of inhibition (H295R cell line [1]): 0
Cortisol as an indicator to determine the presence of inhibition (H295R cell line [1]): 0
EC50 (H295R cell line [1]; [3]): > 1 µM
EC50 (H295R cell line [1]; [4]): > 1 µM

C=CCOC(=O)c1cnnn1[C@H](C)c1ccccc1 [Compound B10]
ED50 (Sprague-Dawley rats; Rattus norvegicus): 0.5 to 1 mg/kg
Approximate therapeutic index (Sprague-Dawley rats): >16
Minimal lethal dose (Sprague-Dawley rats): >11 mg/kg
Corticosterone as an indicator to determine the presence of inhibition (H295R cell line [1]): 0
Cortisol as an indicator to determine the presence of inhibition (H295R cell line [1]): 0
EC50 (H295R cell line [1]; [3]): > 0.1 µM
EC50 (H295R cell line [1]; [4]): > 0.1 µM

C[C@H](c1ccccc1)n1nnc(I)c1C(=O)OC1CCC1 [Compound B132]
ED50 (Sprague-Dawley rats; Rattus norvegicus): 0.5 to 1 mg/kg
Approximate therapeutic index (Sprague-Dawley rats): >16
Minimal lethal dose (Sprague-Dawley rats): >12 mg/kg
Corticosterone as an indicator to determine the presence of inhibition (H295R cell line [1]): 0
Cortisol as an indicator to determine the presence of inhibition (H295R cell line [1]): 0
EC50 (H295R cell line [1]; [3]): > 1 µM
EC50 (H295R cell line [1]; [4]): > 1 µM

CC=CC1(OC(=O)c2cnnn2C(C)c2ccccc2)COC1 (mixture of isomers) [Compound B21]
ED50 (Sprague-Dawley rats): B (B indicates that the measured ED50 is in the range of 0.50-1.00 mg/kg (excluding 0.50 mg/kg, including 1.00 mg/kg))
Approximate therapeutic index (Sprague-Dawley rats): >11
Minimal lethal dose (Sprague-Dawley rats): >8 mg/kg
Corticosterone as an indicator to determine the presence of inhibition (H295R cell line [1]): 0
Cortisol as an indicator to determine the presence of inhibition (H295R cell line [1]): 0
EC50 (H295R cell line [1]; [5]): > 0.1 µM
EC50 (H295R cell line [1]; read-out: EC50 (Cortisol)): > 0.1 µM

COC(=O)C1=C(OC(=O)c2c(F)nnn2[C@H](C)c2ccccc2)CCC1 [Compound B36]
ED50 (Sprague-Dawley rats; Rattus norvegicus): 0.5 to 1 mg/kg
Approximate therapeutic index (Sprague-Dawley rats): >7
Minimal lethal dose (Sprague-Dawley rats): >5 mg/kg
Corticosterone as an indicator to determine the presence of inhibition (H295R cell line [1]): 0
Cortisol as an indicator to determine the presence of inhibition (H295R cell line [1]): 0
EC50 (H295R cell line [1]; [3]): > 1 µM
EC50 (H295R cell line [1]; [4]): > 1 µM

CCOC(=O)c1c(I)nnn1[C@H](C)c1ccccc1 [Compound B127]
ED50 (Sprague-Dawley rats; Rattus norvegicus): 0.5 to 1 mg/kg
Approximate therapeutic index (Sprague-Dawley rats): >23
Minimal lethal dose (Sprague-Dawley rats): >16 mg/kg
Corticosterone as an indicator to determine the presence of inhibition (H295R cell line [1]): 0
Cortisol as an indicator to determine the presence of inhibition (H295R cell line [1]): 0
EC50 (H295R cell line [1]; [3]): > 3 µM
EC50 (H295R cell line [1]; [4]): > 3 µM

C[C@H](c1ccccc1)n1nnc(Cl)c1C(=O)OC1CCC1 [Compound B70]
ED50 (Sprague-Dawley rats): D (D indicates that the measured ED50 is in the range of 2.00-10.00 mg/kg (excluding 2.00 mg/kg, including 10.00 mg/kg))
Approximate therapeutic index (Sprague-Dawley rats): >2
Minimal lethal dose (Sprague-Dawley rats): >15 mg/kg
Corticosterone as an indicator to determine the presence of inhibition (H295R cell line [1]): 0
Cortisol as an indicator to determine the presence of inhibition (H295R cell line [1]): 0
EC50 (H295R cell line [1]; [5]): > 1 µM
EC50 (H295R cell line [1]; read-out: EC50 (Cortisol)): > 1 µM

C=C=CC1(OC(=O)c2c(F)nnn2[C@H](C)c2ccccc2)COC1 [Compound B35]
ED50 (Sprague-Dawley rats; Rattus norvegicus): 0.04 to 0.5 mg/kg
Approximate therapeutic index (Sprague-Dawley rats): >29
Minimal lethal dose (Sprague-Dawley rats): >8 mg/kg
Corticosterone as an indicator to determine the presence of inhibition (H295R cell line [1]): 0
Cortisol as an indicator to determine the presence of inhibition (H295R cell line [1]): 0
EC50 (H295R cell line [1]; [3]): > 1 µM
EC50 (H295R cell line [1]; [4]): > 1 µM

CO[C@H]1C[C@@H](OC(=O)c2cnnn2[C@H](C)c2ccccc2)C1 [Compound B8]
ED50 (Sprague-Dawley rats; Rattus norvegicus): 0.5 to 1 mg/kg
Approximate therapeutic index (Sprague-Dawley rats): >9
Minimal lethal dose (Sprague-Dawley rats): >8 mg/kg
Corticosterone as an indicator to determine the presence of inhibition (H295R cell line [1]): 0
Cortisol as an indicator to determine the presence of inhibition (H295R cell line [1]): 0
EC50 (H295R cell line [1]; [3]): > 1 µM
EC50 (H295R cell line [1]; [4]): > 1 µM

C=C=CC1(OC(=O)c2c(Br)nnn2[C@H](C)c2ccccc2)COC1 [Compound B101]
ED50 (Sprague-Dawley rats): C (C indicates that the measured ED50 is in the range of 1.00-2.00 mg/kg (excluding 1.00 mg/kg, including 2.00 mg/kg))
Approximate therapeutic index (Sprague-Dawley rats): >7
Minimal lethal dose (Sprague-Dawley rats): >13 mg/kg
Corticosterone as an indicator to determine the presence of inhibition (H295R cell line [1]): 0
Cortisol as an indicator to determine the presence of inhibition (H295R cell line [1]): 0
EC50 (H295R cell line [1]; [5]): > 1 µM
EC50 (H295R cell line [1]; read-out: EC50 (Cortisol)): > 1 µM

CCOC(=O)c1nnn([C@H](C)c2ccccc2)c1C(F)(F)F [Compound B146]
ED50 (Sprague-Dawley rats): C (C indicates that the measured ED50 is in the range of 1.00-2.00 mg/kg (excluding 1.00 mg/kg, including 2.00 mg/kg))
Approximate therapeutic index (Sprague-Dawley rats): >8
Minimal lethal dose (Sprague-Dawley rats): >14 mg/kg
Corticosterone as an indicator to determine the presence of inhibition (H295R cell line [1]): 0
Cortisol as an indicator to determine the presence of inhibition (H295R cell line [1]): 0
EC50 (H295R cell line [1]; [5]): > 3 µM
EC50 (H295R cell line [1]; read-out: EC50 (Cortisol)): > 3 µM

C=CCOC(=O)c1c(I)nnn1[C@H](C)c1ccccc1 [Compound B136]
ED50 (Sprague-Dawley rats): D (D indicates that the measured ED50 is in the range of 2.00-10.00 mg/kg (excluding 2.00 mg/kg, including 10.00 mg/kg))
Approximate therapeutic index (Sprague-Dawley rats): >6
Minimal lethal dose (Sprague-Dawley rats): >18 mg/kg
Corticosterone as an indicator to determine the presence of inhibition (H295R cell line [1]): 0
Cortisol as an indicator to determine the presence of inhibition (H295R cell line [1]): 0
EC50 (H295R cell line [1]; [5]): > 1 µM
EC50 (H295R cell line [1]; read-out: EC50 (Cortisol)): > 1 µM

C[C@H](c1ccccc1)n1nncc1C(=O)OCC1CC1 [Compound B7]
ED50 (Sprague-Dawley rats; Rattus norvegicus): 0.5 to 1 mg/kg
Approximate therapeutic index (Sprague-Dawley rats): >31
Minimal lethal dose (Sprague-Dawley rats): >24 mg/kg
Corticosterone as an indicator to determine the presence of inhibition (H295R cell line [1]): 0
Cortisol as an indicator to determine the presence of inhibition (H295R cell line [1]): 0
EC50 (H295R cell line [1]; [3]): > 0.1 µM
EC50 (H295R cell line [1]; [4]): > 0.1 µM
